Consider 19 compounds from patent US20090156577A1, “7-AMINO ALKYLIDENYL-HETEROCYCLIC QUINOLONES AND NAPHTHYRIDONES” (priority 2004, published 2009).

In brackets after ≈: the same amount, converted by molar mass. Where a name gives a salt, the structure may show the parent alone. Read-outs that look alike come from different tables or passages of the source.

The subject of this assay is pathogenic bacteria. Briefly: MIC by microdilution broth method (NCCLS M7-A4), in vitro antibacterial activity. The format is cell-based. Put shortly:
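Broth microdilution per NCCLS M7-A4: two-fold serial dilutions in cation-adjusted Mueller-Hinton broth, inoculum about 5×10^4 CFU/well. Trays incubated 16–20 h at 35 °C. MIC read by comparing growth against no-compound growth controls.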
(Broth dilution looks for growth in wells or tubes with falling amounts of substance.)

Where [1] appears, read: Streptococcus pneumoniae, Organism B: fluoroquinolone-resistant clinical isolate of Streptococcus pneumoniae (QRDR amino acid substitutions).
Setting [2] is: Streptococcus pneumoniae, Organism C: fluoroquinolone-resistant clinical isolate of Streptococcus pneumoniae (QRDR amino acid substitutions).
Where [3] appears, read: Streptococcus pneumoniae, Organism D: fluoroquinolone-resistant clinical isolate of Streptococcus pneumoniae (QRDR amino acid substitutions).
The mark [4] stands for this setting: Staphylococcus aureus, Organism A: Staphylococcus aureus OC4172, read-out: MIC.
Where [5] appears, read: Streptococcus pneumoniae, ATCC49619, Organism E: Streptococcus pneumoniae ATCC 49619, read-out: MIC.
The mark [6] stands for this setting: Staphylococcus aureus, Organism A: Staphylococcus aureus OC4172.
Setting [7] is: Streptococcus pneumoniae, ATCC49619, Organism E: Streptococcus pneumoniae ATCC 49619.

`CNCC=C1CCN(c2c(F)cc3c(=O)c(C(=O)O)cn(C4CC4)c3c2OC)CC1` [Compound 221, 1-Cyclopropyl-6-fluoro-8-methoxy-7-[4-(2-methylamino-ethylidene)-piperidin-1-yl]-4-oxo-1,4-dihydro-quinoline-3-carboxylic Acid Trifluoroacetic Acid Salt]: the MIC reads like this: under setting [1], 2 µg/mL; under setting [2], 4 µg/mL; under setting [3], 4 µg/mL.

Regarding `CC(C)NCC(F)=C1CCN(c2nc3c(cc2F)c(=O)c(C(=O)O)cn3C2CC2)CC1` [Compound 247, 1-Cyclopropyl-6-fluoro-7-[4-(1-fluoro-2-isopropylamino-ethylidene)-piperidin-1-yl]-4-oxo-1,4-dihydro-[1,8]naphthyridine-3-carboxylic acid], the MIC under setting [4] was determined as 0.5 µg/mL (≈ 1.16 µM), the MIC under setting [5] was determined as 0.5 µg/mL (≈ 1.16 µM), the MIC under setting [2] was found to be 8 µg/mL (≈ 18.5 µM) and it took 2 µg/mL (≈ 4.62 µM) to inhibit growth under setting [3] (MIC).

In the case of `CC(C)NCC(Cl)=C1CCN(c2cc3c(cc2F)c(=O)c(C(=O)O)cn3C2CC2)CC1` [Compound 248, 7-[4-(1-Chloro-2-isopropylamino-ethylidene)-piperidin-1-yl]-1-cyclopropyl-6-fluoro-4-oxo-1,4-dihydro-quinoline-3-carboxylic acid], the MIC is, setting by setting: under setting [4], 0.5 µg/mL (≈ 1.12 µM); under setting [5], 2 µg/mL (≈ 4.46 µM); under setting [2], 16 µg/mL (≈ 35.7 µM); under setting [3], 4 µg/mL (≈ 8.93 µM).

Take `CC(C)NCC(F)=C1CCN(c2cc3c(cc2F)c(=O)c(C(=O)O)cn3C2CC2)CC1` [Compound 249, 1-Cyclopropyl-6-fluoro-7-[4-(1-fluoro-2-isopropylamino-ethylidene)-piperidin-1-yl]-4-oxo-1,4-dihydro-quinoline-3-carboxylic acid]: the MIC is, setting by setting: under setting [4], 1 µg/mL (≈ 2.32 µM); under setting [5], 2 µg/mL (≈ 4.64 µM); under setting [2], 16 µg/mL (≈ 37.1 µM); under setting [3], 4 µg/mL (≈ 9.27 µM).

As for `CC(C)NCC(Cl)=C1CCN(c2c(F)cc3c(=O)c(C(=O)O)cn(C4CC4)c3c2OC(F)F)CC1` [Compound 250, 7-[4-(1-Chloro-2-isopropylamino-ethylidene)-piperidin-1-yl]-1-cyclopropyl-8-difluoromethoxy-6-fluoro-4-oxo-1,4-dihydro-quinoline-3-carboxylic acid], the MIC under setting [4] was determined as 0.25 µg/mL (≈ 0.486 µM), the MIC under setting [5] is 0.5 µg/mL (≈ 0.973 µM), the minimal inhibitory concentration (MIC) under setting [2] stood at 8 µg/mL (≈ 15.6 µM) and the MIC under setting [3] stood at 0.5 µg/mL (≈ 0.973 µM).

For the compound `CC(C)NCC(F)=C1CCN(c2c(F)cc3c(=O)c(C(=O)O)cn(C4CC4)c3c2OC(F)F)CC1` [Compound 251, 1-Cyclopropyl-8-difluoromethoxy-6-fluoro-7-[4-(1-fluoro-2-isopropylamino-ethylidene)-piperidin-1-yl]-4-oxo-1,4-dihydro-quinoline-3-carboxylic acid], the MIC was 0.5 µg/mL (≈ 1.01 µM) under setting [4], 1 µg/mL (≈ 2.01 µM) under setting [5], 16 µg/mL (≈ 32.2 µM) under setting [2] and above 2 µg/mL under setting [3].

Regarding `COc1c(N2CCC(=C(F)CNC(C)C)CC2)c(F)cc2c(=O)c(C(=O)O)cn(C3CC3)c12` [Compound 252, 1-Cyclopropyl-6-fluoro-7-[4-(i-fluoro-2-isopropylamino-ethylidene)-piperidin-1-yl]-8-methoxy-4-oxo-1,4-dihydro-quinoline-3-carboxylic Acid trifluoroacetic acid salt], the MIC runs as follows: under setting [4], 0.5 µg/mL; under setting [5], 1 µg/mL; under setting [2], 8 µg/mL; under setting [3], 4 µg/mL.

`NC/C(F)=C1/CCCN(c2nc3c(cc2F)c(=O)c(C(=O)O)cn3C2CC2)C1` [Compound 253, (E)-7-[3-(2-Amino-1-fluoro-ethylidene)-piperidin-1-yl]-1-cyclopropyl-6-fluoro-4-oxo-1,4-dihydro-[1,8]naphthyridine-3-carboxylic acid trifluoroacetic acid salt] yielded a minimum inhibitory concentration (MIC) under setting [6] of 0.06 µg/mL; a minimum inhibitory concentration (MIC) under setting [7] of 0.5 µg/mL; an MIC under setting [1] of 4 µg/mL; an MIC under setting [2] above 16 µg/mL; an MIC under setting [3] of 4 µg/mL.

For the compound `NC/C(Cl)=C1/CCCN(c2nc3c(cc2F)c(=O)c(C(=O)O)cn3C2CC2)C1` [Compound 254, (E)-7-[3-(2-Amino-1-chloro-ethylidene)-piperidin-1-yl]-1-cyclopropyl-6-fluoro-4-oxo-1,4-dihydro-[1,8]naphthyridine-3-carboxylic acid], the MIC reads like this: under setting [4], 0.06 µg/mL (≈ 0.147 µM); under setting [5], 0.25 µg/mL (≈ 0.614 µM); under setting [2], 4 µg/mL (≈ 9.83 µM); under setting [3], 4 µg/mL (≈ 9.83 µM).

With `NC/C(Cl)=C1\CCCN(c2nc3c(cc2F)c(=O)c(C(=O)O)cn3C2CC2)C1` [Compound 255, (Z)-7-[3-(2-Amino-1-chloro-ethylidene)-piperidin-1-yl]-1-cyclopropyl-6-fluoro-4-oxo-1,4-dihydro-[1,8]naphthyridine-3-carboxylic acid], the MIC under setting [4] turned out to be 0.5 µg/mL (≈ 1.23 µM); the minimal inhibitory concentration (MIC) under setting [5] amounted to 4 µg/mL (≈ 9.83 µM); the lowest concentration to inhibit growth under setting [1] (MIC) was 2 µg/mL (≈ 4.92 µM); 4 µg/mL (≈ 9.83 µM) was the least that counted as inhibitory under setting [2] (MIC); the MIC under setting [3] amounted to 16 µg/mL (≈ 39.3 µM).

`NC/C(F)=C1/CCCN(c2cc3c(cc2F)c(=O)c(C(=O)O)cn3C2CC2)C1` [Compound 256, (E)-7-[3-(2-Amino-1-fluoro-ethylidene)-piperidin-1-yl]-1-cyclopropyl-6-fluoro-4-oxo-1,4-dihydro-quinoline-3-carboxylic Acid Trifluoroacetic Acid Salt] had an MIC under setting [6] of 0.03 µg/mL; an MIC under setting [7] of 0.06 µg/mL; an MIC under setting [1] of 1 µg/mL; an MIC under setting [2] of 1 µg/mL; an MIC under setting [3] of 1 µg/mL.

Regarding `NC/C(Cl)=C1/CCCN(c2cc3c(cc2F)c(=O)c(C(=O)O)cn3C2CC2)C1` [Compound 257, (E)-7-[3-(2-Amino-1-chloro-ethylidene)-piperidin-1-yl]-1-cyclopropyl-6-fluoro-4-oxo-1,4-dihydro-quinoline-3-carboxylic acid], the MIC worked out at 0.03 µg/mL (≈ 0.0739 µM) under setting [4]; 0.06 µg/mL (≈ 0.148 µM) under setting [5]; 0.5 µg/mL (≈ 1.23 µM) under setting [1]; 0.5 µg/mL (≈ 1.23 µM) under setting [2]; 0.5 µg/mL (≈ 1.23 µM) under setting [3].

Turning to `NC/C(Cl)=C1\CCCN(c2cc3c(cc2F)c(=O)c(C(=O)O)cn3C2CC2)C1` [Compound 258, (Z)-7-[3-(2-Amino-1-chloro-ethylidene)-piperidin-1-yl]-1-cyclopropyl-6-fluoro-4-oxo-1,4-dihydro-quinoline-3-carboxylic acid], the minimum inhibitory concentration (MIC) reads like this: under setting [4], at most 4 µg/mL; under setting [5], 8 µg/mL (≈ 19.7 µM); under setting [1], 8 µg/mL (≈ 19.7 µM); under setting [2], above 16 µg/mL; under setting [3], above 16 µg/mL.

On to `NC/C(F)=C1/CCCN(c2c(F)cc3c(=O)c(C(=O)O)cn(C4CC4)c3c2OC(F)F)C1` [Compound 259, (E)-7-[3-(2-Amino-1-fluoro-ethylidene)-piperidin-1-yl]-1-cyclopropyl-8-difluoromethoxy-6-fluoro-4-oxo-1,4-dihydro-quinoline-3-carboxylic acid], for which the MIC under setting [4] came to 0.03 µg/mL (≈ 0.0659 µM); the MIC under setting [5] amounted to 0.06 µg/mL (≈ 0.132 µM); the MIC under setting [1] stood at 0.5 µg/mL (≈ 1.1 µM); it took 1 µg/mL (≈ 2.2 µM) to inhibit growth under setting [2] (MIC); inhibition of growth under setting [3] (MIC) required 0.12 µg/mL (≈ 0.263 µM).

As for `NC/C(Cl)=C1/CCCN(c2c(F)cc3c(=O)c(C(=O)O)cn(C4CC4)c3c2OC(F)F)C1` [Compound 260, (E)-7-[3-(2-Amino-1-chloro-ethylidene)-piperidin-1-yl]-1-cyclopropyl-8-difluoromethoxy-6-fluoro-4-oxo-1,4-dihydro-quinoline-3-carboxylic acid], the MIC reads like this: under setting [4], 0.03 µg/mL (≈ 0.0636 µM); under setting [5], 0.06 µg/mL (≈ 0.127 µM); under setting [2], 0.5 µg/mL (≈ 1.06 µM); under setting [3], 0.06 µg/mL (≈ 0.127 µM).

Take `COc1c(N2CCC/C(=C(\Cl)CN)C2)c(F)cc2c(=O)c(C(=O)O)cn(C3CC3)c12` [Compound 261, (E)-7-[3-(2-Amino-1-chloro-ethylidene)-piperidin-1-yl]-1-cyclopropyl-6-fluoro-8-methoxy-4-oxo-1,4-dihydro-quinoline-3-carboxylic Acid Trifluoroacetic Acid Salt]: the MIC reads like this: under setting [6], at most 0.015 µg/mL; under setting [7], at most 0.015 µg/mL; under setting [1], 0.06 µg/mL; under setting [2], 0.06 µg/mL; under setting [3], 0.06 µg/mL.

In the case of `COc1c(N2CCC(=C(Cl)CN)CC2)c(F)cc2c(=O)c(C(=O)O)cn([C@@H]3C[C@@H]3F)c12` [Compound 262, 7-[4-(2-Amino-1-chloro-ethylidene)-piperidin-1-yl]-6-fluoro-(1R,2S)-1-(2-fluoro-cyclopropyl)-8-methoxy-4-oxo-1,4-dihydro-quinoline-3-carboxylic acid], the MIC reads like this: under setting [4], at most 0.015 µg/mL; under setting [5], 0.25 µg/mL (≈ 0.551 µM); under setting [2], 1 µg/mL (≈ 2.2 µM); under setting [3], 1 µg/mL (≈ 2.2 µM).

Regarding `Cc1c(F)c(N2CCC(=C(Cl)CN)CC2)cc2c1c(=O)c(C(=O)O)cn2C1CC1` [Compound 263, 7-[4-(2-Amino-1-chloro-ethylidene)-piperidin-1-yl]-1-cyclopropyl-6-fluoro-5-methyl-4-oxo-1,4-dihydro-quinoline-3-carboxylic Acid], the MIC was found to be 0.03 µg/mL (≈ 0.0714 µM) under setting [4]; 0.12 µg/mL (≈ 0.286 µM) under setting [5]; 0.5 µg/mL (≈ 1.19 µM) under setting [1]; 1 µg/mL (≈ 2.38 µM) under setting [2]; 0.5 µg/mL (≈ 1.19 µM) under setting [3].

As for `CNCC(Cl)=C1CCN(c2c(F)cc3c(=O)c(C(=O)O)cn(C4CC4)c3c2O)CC1.Cl` [Compound 267, 7-[4-(1-Chloro-2-methylamino-ethylidene)-piperidin-1-yl]-1-cyclopropyl-6-fluoro-8-hydroxy-4-oxo-1,4-dihydro-quinoline-3-carboxylic Acid Hydrochloride Salt], the MIC reads like this: under setting [4], 0.12 µg/mL; under setting [5], 0.5 µg/mL; under setting [1], 2 µg/mL; under setting [2], 2 µg/mL; under setting [3], 2 µg/mL.

As usually defined, the MIC is the lowest concentration found to suppress growth.
